Measurements: patent US20250275953A1, “VODOBATINIB FOR REDUCING PROGRESSION OF PARKINSON'S DISEASE” (Sun Pharma Advanced Research Company Ltd., priority 2022, published 2025)
Like-named read-outs stand apart in the source and are kept apart here.

Assay: CSF pharmacokinetics on Day 7, healthy volunteers
Format: in vivo, human
Conditions: for CSF AUC0-24 AM / CSF AUC0-24 GM / CSF AUC0-24 Median / CSF Cmax AM / CSF Cmax GM / CSF Cmax Median / Tmax: Day 7, CSF, healthy volunteers; for Cmax, CSF/IC50: IC50 0.9 nM; for Tmax: male, human, CSF, oral
Protocol: CSF Assessment: On the morning of Day 7, local anesthetic (e.g., lidocaine 2% with epinephrine) was administered subcutaneously at the site of lumbar puncture. An indwelling intrathecal catheter was inserted at the lumbar region (L3-L5) by a trained and experienced anesthesiologist (i.e., using an epidural tray, 17G or 20/22G Tuohy needle and catheter over needle system). A CSF sample was collected for safety labs (i.e., cell count, glucose, protein). Serial CSF samples were then collected through the spinal catheter and tubing connected to a fractional collection system (i.e., peristaltic pump). The CSF samples (8 mL) were collected at a flow rate of 0.5 mL/min over a 16-minute period at pre-dose, and at 0.5 h, 1.0 h, 1.5 h, 2 h, 2.5 h, 3 h, 4 h, 6 h, 8 h, 12 h and 24 h post-dose. The first 2 mL of CSF was discarded, and the 6 mL remainder was used for the PK study.
The plasma and CSF samples were analyzed, by validated LC/MS-MS methods. PK analysis was conducted based on PK/PP Population: Cmax, AUC0-t, AUC0-24, AUC0-∞, Tmax, Cavg, CL/F, Cmin, t1/2, Kel, Vd (V/F; Vd/F), and Vss/F. Model-independent plasma PK parameters (Cmax, Tmax, t1/2, AUC0-t, AUC0-24, AUC0-∞, Cavg, CL/F, Vss/F, Vd/F), after the first dose (Day 1) and last dose (Day 7), Cmin on Days 2-7) was listed by subject and summarized by study cohort. In addition to the descriptive statistics listed above, geometric means was reported for the pivotal PK endpoints (CL/F, Vss/F, Vd/F, Cmin, Cavg, AUC0-t, AUC0-24, AUC0-∞, and Cmax). For CSF, PK parameters (Cmax, Tmax, t1/2, AUC0-t, AUC0-24, Cmin, Cavg, CL/F, Vss/F) was listed by subject and summarized by cohort. Ratios of CSF: plasma concentration at each time point was listed by subject and summarized by study cohort.
Forty-one healthy adult male volunteers aged 18 to 45 with body mass indexes (BMI)≥18 to ≤30 Kg/m^2 and total body weight >50 kg (110 lb) were screened in order to enroll 19 subjects with an average age of 34.2 years (range 21.5-45.6 years) into this study Six participants were randomly assigned to the 48 and 192 mg cohorts, and seven participants were assigned to the 384 mg cohort. After an overnight fast, participants received once daily doses of vodobatinib as capsules for 7 days. Serial PK blood samples to measure vodobatinib plasma concentrations were collected at pre-dose and at 0.25, 0.5, 1, 1.5, 2, 2.5, 3, 4, 6, 8, 12, 16 and 24 h post-dose after the first dose on Day 1 and the last dose on day 7. Additional PK samples prior to the morning doses were taken on Days 3-6. On the morning of Day 7, prior to dosing, an indwelling intrathecal catheter was inserted in the lumbar region (L3-L5). Serial CSF samples were collected through the catheter connected via peristaltic pump to a fraction collector. At each designated CSF collection time point, 8 mL of CSF was collected at a flow rate of 0.5 mL/min over a 16-min period at pre-dose, and 0.5, 1.0, 1.5, 2, 2.5, 3, 4, 6, 8, 12 and 24 h post-dose. The first 2 mL of CSF was discarded, and the remaining 6 mL was used for the vodobatinib assay. The occurrence of treatment-emergent adverse events (TEAEs) and serious AEs (SAEs) reported through the completion of study were collected. Clinical laboratory parameters, vital signs and physical examination data and electrocardiogram (ECG) were collected and evaluated relative to baseline values.

[1] = 48 mg, Day 7, Healthy Volunteers
[2] = 192 mg, Day 7, Healthy Volunteers
[3] = 384 mg, Day 7, Healthy Volunteers

SMILES: Cc1ccc(C(=O)NNC(=O)c2c(C)cccc2Cl)cc1C#Cc1cnc2ccccc2c1 [N′-(2-chloro-6-methylbenzoyl)-4-methyl-3-[2-(3-quinolyl)ethynyl]-benzohydrazide]
- CSF AUC0-24 (48 mg, Day 7): 0.0183 µM·h
- CSF AUC0-24 AM (48 mg): 10.0 ng·h/mL
- CSF AUC0-24 GM (48 mg): 8.9 ng·h/mL
- CSF AUC0-24 Median (48 mg): 10.1 ng·h/mL
- CSF Cmax AM (48 mg): 0.8 ng/mL
- CSF Cmax GM (48 mg): 0.7 ng/mL
- CSF Cmax Median (48 mg): 0.8 ng/mL
- CSF AUC0-24 [1]: 10.0 ng·h/mL
- Cavg, CSF [1]: (0.9 nM)
- Cmax, CSF [1]: (1.8 nM)
- Cmax, CSF (48 mg, Day 7, Healthy Volunteers, Table 11A): 0.8 ng/mL
- Cmax, CSF/IC50 [1]: 2.0
- Cavg, CSF (48 mg, Day 7, Healthy Volunteers, estimated as AUC(0-24)/24): 0.42 ng/mL
- CSF concentrations at 2-3 h (48 mg, healthy subjects): 0.5 to 0.7 ng/mL
- CSF AUC0-24 (192 mg, Day 7): 0.1304 µM·h
- CSF AUC0-24 AM (192 mg): 74.5 ng·h/mL
- CSF AUC0-24 GM (192 mg): 59.2 ng·h/mL
- CSF AUC0-24 Median (192 mg): 64.5 ng·h/mL
- CSF Cmax AM (192 mg): 5.2 ng/mL
- CSF Cmax GM (192 mg): 4.6 ng/mL
- CSF Cmax Median (192 mg): 5.2 ng/mL
- CSF AUC0-24 [2]: 74.5 ng·h/mL
- Cavg, CSF [2]: (6.8 nM)
- Cmax, CSF [2]: (11.5 nM)
- Cmax, CSF (192 mg, Day 7, Healthy Volunteers, Table 11A): 5.2 ng/mL
- Cmax, CSF/IC50 [2]: 13
- Cavg, CSF (192 mg, Day 7, Healthy Volunteers, estimated as AUC(0-24)/24): 3.3 ng/mL
- CSF AUC0-24 (384 mg, Day 7): 0.1201 µM·h
- CSF AUC0-24 AM (384 mg): 58.7 ng·h/mL
- CSF AUC0-24 GM (384 mg): 54.5 ng·h/mL
- CSF AUC0-24 Median (384 mg): 60.0 ng·h/mL
- CSF Cmax AM (384 mg): 5.5 ng/mL
- CSF Cmax GM (384 mg): 5.4 ng/mL
- CSF Cmax Median (384 mg): 5.1 ng/mL
- CSF AUC0-24 [3]: 58.7 ng·h/mL
- Cavg, CSF [3]: (5.3 nM)
- Cmax, CSF [3]: (12.3 nM)
- Cmax, CSF (384 mg, Day 7, Healthy Volunteers, Table 11A): 5.5 ng/mL
- Cmax, CSF/IC50 [3]: 14
- Cavg, CSF (384 mg, Day 7, Healthy Volunteers, estimated as AUC(0-24)/24): 2.4 ng/mL
- quantifiable CSF concentrations (Day 7, 3 dose cohorts): observed in all subjects
- Tmax (48 mg, read-out: CSF Tmax Median): 3 h
- Tmax (48 mg, read-out: CSF Tmax Min, Max): 3 to 6.02 h
- Tmax (192 mg, read-out: CSF Tmax Median): 6 h
- Tmax (192 mg, read-out: CSF Tmax Min, Max): 2.03 to 6.01 h
- Tmax (384 mg, read-out: CSF Tmax Median): 5 h
- Tmax (384 mg, read-out: CSF Tmax Min, Max): 2.5 to 8.01 h
- ratio of concentration in CSF to IC50 of c-Abl inhibition (therapeutically effective amount): not less than 1
